The text below walks through data of patent US20250382298A1, “NITROGEN-CONTAINING COMPOUND AND USE THEREOF” (SUZHOU GENHOUSE BIO CO., LTD., priority 2022, published 2025).

The test system of experiment [1] is HT-29 cells. Kind of experiment: Mitotic index analysis, pH3 expression in HT-29 cells. The note with it: 24 h treatment. The experiment is classed as cell-based, human. The essentials: (§1)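 HCT-116 or HT-29 cells treated 24 h with 9-point 3-fold dilutions from 10 μM, then fixed and immunostained for phospho-histone H3 with DRAQ5 counterstain. Near-infrared fluorescence read at 700/800 nm; pH3 expressed as % of DMSO control and EC50 fitted.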

Experiment [2] concerns HT-29 cells. Description: Detection of cell proliferation activity by CCK8 method (HT-29). The experiment is classed as cell-based, human. To be noted: CCK8, 96 h. The essentials:
(§2)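 Cells seeded at 1500/well (BT-549, 1640 medium) or 2000/well (HT-29, HCT-116, McCoy's 5A), treated next day with 9-point 1:5 dilutions from 10 μM final, triplicate, for 96 h. CCK8 read at 450 nm after 2 h at 37 °C; inhibition versus DMSO, IC50 by non-linear regression.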

The test system of experiment [3] is HCT-116 cells. Description: Detection of cell proliferation activity by CCK8 method (HCT-116). Format: cell-based. To be noted: CCK8, 96 h. The essentials:
as §2
(Tetrazolium dyes change colour on reduction, which living cells bring about.)

For the next experiment, the system named is BT-549 cells. Kind of experiment: Detection of cell proliferation activity by CCK8 method (BT-549). To be noted: CCK8, 96 h. Format: cell-based. The essentials: as §2
For experiment [4], the system named is HCT-116 cells. Kind of experiment: Mitotic index analysis, pH3 expression in HCT-116 cells. The experiment is classed as cell-based. To be noted: 24 h treatment. The essentials: as §1

Usually EC50 stands for the concentration giving half of the maximal effect. A higher EC50 goes with a less potent agent. In general, IC50 refers to the concentration that gives 50% inhibition. Regarding `O=C(Nc1cc2cc[nH]c2c(N2CCC(F)(F)CC2)n1)c1ccc(NS(=O)(=O)CCO)cc1N1CCC2(CC1)CC2` [Compound 22], the EC50 was 8.9 nM in the experiment with HT-29 cells [1] (Homo sapiens) and above 10000 nM in the experiment with HCT-116 cells [4] (Homo sapiens). For the same compound, the IC50 in the experiment with HT-29 cells [2] (Homo sapiens) is 20.6 nM; with HCT-116 cells [3] (Homo sapiens), above 10000 nM; in the experiment on BT-549 cells (Homo sapiens) it was 22.1 nM.
As for `O=C(Nc1cn2c(F)cnc2c(N2CCC(F)(F)CC2)n1)c1ccc(NS(=O)(=O)CCO)cc1N1CCC2(CC1)CC2` [Compound 34], the figures for the concentration giving a half-maximal response (EC50) in the experiment on HT-29 cells [1] (Homo sapiens) and with HCT-116 cells [4] (Homo sapiens) were 14.5 nM and above 10000 nM, respectively. Besides, the IC50 in the experiment on HT-29 cells [2] (Homo sapiens) is 28.8 nM; with HCT-116 cells [3] (Homo sapiens), above 10000 nM; in the experiment on BT-549 cells (Homo sapiens) it was 33.3 nM.
`O=C(Nc1cn2ccnc2c(N2CCC(F)(F)CC2)n1)c1ccc(NS(=O)(=O)CCO)cc1N1CC2CCC(C2)C1` [Compound 17]: the EC50 in the experiment on HT-29 cells [1] (Homo sapiens) was 57 nM; with HCT-116 cells [4] (Homo sapiens), above 10000 nM. Further, the IC50 in the experiment with HT-29 cells [2] (Homo sapiens) was 27 nM; with HCT-116 cells [3] (Homo sapiens), above 10000 nM; in the experiment on BT-549 cells (Homo sapiens), 33 nM.
On to `O=C(Nc1cc2ccsc2c(N2CCC(F)(F)CC2)n1)c1ccc(NS(=O)(=O)CCO)cc1N1CCC2(CC1)CC2` [Compound 15], for which the EC50 in the experiment on HT-29 cells [1] (Homo sapiens) was 82 nM; in the experiment with HCT-116 cells [4] (Homo sapiens) it was above 10000 nM. Further, the IC50 with HT-29 cells [2] (Homo sapiens) is 107 nM; in the experiment on HCT-116 cells [3] (Homo sapiens), above 10000 nM; in the experiment on BT-549 cells (Homo sapiens), 86 nM.
Take `CS(=O)(=O)Nc1ccc(C(=O)Nc2cn3ccnc3c(N3CCC(F)(F)CC3)n2)c(N2CC3CCC(C3)C2)c1` [Compound 19]: the figures for the EC50 in the experiment with HT-29 cells [1] (Homo sapiens) and in the experiment with HCT-116 cells [4] (Homo sapiens) were 34 nM and above 10000 nM, respectively. Moreover, the IC50 is 44 nM in the experiment on HT-29 cells [2] (Homo sapiens), above 10000 nM with HCT-116 cells [3] (Homo sapiens) and 69.6 nM in the experiment with BT-549 cells (Homo sapiens).
Regarding `Cc1cc(NC(=O)c2ccc(NS(=O)(=O)CCO)cc2N2CC3CCC(C3)C2)nc(N2CCC(F)(F)CC2)n1` [Compound 3], the results for the EC50 in the experiment with HT-29 cells [1] (Homo sapiens) and in the experiment on HCT-116 cells [4] (Homo sapiens) were 495 nM and above 10000 nM, respectively. Moreover, the IC50 is 115 nM with HT-29 cells [2] (Homo sapiens), above 10000 nM with HCT-116 cells [3] (Homo sapiens) and 145 nM in the experiment with BT-549 cells (Homo sapiens).
Regarding `O=C(Nc1cc2c(c(N3CCC(F)(F)CC3)n1)COC2)c1ccc(NS(=O)(=O)CCO)cc1N1CCC2(CC1)CC2` [Compound 14], the results for the concentration giving a half-maximal response (EC50) in the experiment on HT-29 cells [1] (Homo sapiens) and with HCT-116 cells [4] (Homo sapiens) were 22 nM and above 10000 nM, respectively. Besides, the values for the IC50 in the experiment with HT-29 cells [2] (Homo sapiens), in the experiment with HCT-116 cells [3] (Homo sapiens) and in the experiment with BT-549 cells (Homo sapiens) were 30 nM, above 10000 nM and 25 nM, respectively.
In the case of `O=C(Nc1cn2ncnc2c(N2CCC(F)(F)CC2)n1)c1ccc(NS(=O)(=O)CCO)cc1N1CCC2(CC1)CC2` [Compound 23], the values for the EC50 with HT-29 cells [1] (Homo sapiens) and in the experiment on HCT-116 cells [4] (Homo sapiens) were 9.8 nM and above 10000 nM, respectively. The IC50 is 22.5 nM in the experiment on HT-29 cells [2] (Homo sapiens), above 10000 nM in the experiment with HCT-116 cells [3] (Homo sapiens) and 22.6 nM in the experiment on BT-549 cells (Homo sapiens).
`O=C(Nc1cc2ccccc2c(N2CCC(F)(F)CC2)n1)c1ccc(NS(=O)(=O)CCO)cc1N1CCC2(CC1)CC2` [Compound 6]: the EC50 is 175 nM in the experiment with HT-29 cells [1] (Homo sapiens) and above 10000 nM in the experiment with HCT-116 cells [4] (Homo sapiens). The half-maximal inhibitory concentration (IC50) in the experiment on HT-29 cells [2] (Homo sapiens) is 144 nM; in the experiment with HCT-116 cells [3] (Homo sapiens) it was above 10000 nM; in the experiment with BT-549 cells (Homo sapiens) it was 146 nM.
Turning to `O=C(Nc1cc2cccnc2c(N2CCC(F)(F)CC2)n1)c1ccc(NS(=O)(=O)CCO)cc1N1CCC2(CC1)CC2` [Compound 21], the EC50 was 6 nM with HT-29 cells [1] (Homo sapiens) and above 10000 nM with HCT-116 cells [4] (Homo sapiens). Moreover, the results for the IC50 with HT-29 cells [2] (Homo sapiens), with HCT-116 cells [3] (Homo sapiens) and with BT-549 cells (Homo sapiens) were 5.1 nM, above 10000 nM and 8.2 nM, respectively.
Regarding `CS(=O)(=O)Nc1ccc(C(=O)Nc2cc3cc[nH]c3c(N3CCC(F)(F)CC3)n2)c(N2CCC3(CC2)CC3)c1` [Compound 47], the EC50 with HT-29 cells [1] (Homo sapiens) is 6.4 nM; in the experiment with HCT-116 cells [4] (Homo sapiens) it was above 10000 nM. The concentration for half-maximal inhibition (IC50) is 10.5 nM in the experiment with HT-29 cells [2] (Homo sapiens), above 10000 nM in the experiment on HCT-116 cells [3] (Homo sapiens) and 18.9 nM in the experiment on BT-549 cells (Homo sapiens).
Regarding `CS(=O)(=O)Nc1ccc(C(=O)Nc2cn3ccnc3c(N3CCC(F)(F)CC3)n2)c(N2CCC3(CC2)CC3)c1` [Compound 10], the EC50 with HT-29 cells [1] (Homo sapiens) is 183 nM; in the experiment on HCT-116 cells [4] (Homo sapiens), above 10000 nM. Further, the IC50 was 61 nM in the experiment on HT-29 cells [2] (Homo sapiens), above 10000 nM with HCT-116 cells [3] (Homo sapiens) and 52 nM in the experiment with BT-549 cells (Homo sapiens).
With `O=C(Nc1cn2ccnc2c(N2CCC(F)(F)CC2)n1)c1ccc(NS(=O)(=O)CCO)cc1N1CCC2(CC1)CC2` [Compound 8], the EC50 is 6.4 nM with HT-29 cells [1] (Homo sapiens) and above 10000 nM with HCT-116 cells [4] (Homo sapiens). Besides, the IC50 is 19 nM in the experiment with HT-29 cells [2] (Homo sapiens), above 10000 nM in the experiment on HCT-116 cells [3] (Homo sapiens) and 7.2 nM with BT-549 cells (Homo sapiens).
On to `O=C(Nc1cn2cnnc2c(N2CCC(F)(F)CC2)n1)c1ccc(NS(=O)(=O)CCO)cc1N1CCC2(CC1)CC2` [Compound 24], for which the EC50 is 65.6 nM in the experiment with HT-29 cells [1] and above 10000 nM in the experiment on HCT-116 cells [4]. Further, the IC50 was 142 nM in the experiment on HT-29 cells [2], above 10000 nM with HCT-116 cells [3] and 52.8 nM in the experiment on BT-549 cells.
